Columns and labels:
[1] = test system: U87 IDH1 wt and IDH1 mt isogenic pairs; assay: Combination assay PARP inhibitor with VAL-083, U87 isogenic pairs; assay type: cell-based
Protocol: (§1) To evaluate the activity and potency of the PARP inhibitors described herein in combination with the standard of care chemotherapy Temozolamide (TMZ), ionizing radiation (IR) and the emerging chemotherapy VAL-083, U87, SJG2 and BT245 glioblastoma cells were assayed. Parental U87 cell lines were obtained from the AstraZeneca Global Cell Bank in Alderley Park, UK and the isocistrate dehydrogenase 1 mutant cell line (IDH1 mt R1 32H) was licensed in from ATCC. The SJ-G2 (ATRX mutant) and BT245 (H3K27M mutant) cell lines were obtained from The Research Institute of the McGill University Health Centre, Montreal, QC H4A 3J1, Canada. IDH1R132 mutation was induced in SJG2 cell line to generated isogenic pair (SJG2 IDH1mt and SJG2 IDH1 wt). […]
(§2) For the nuclear count end point assay, cells were fixed for ˜15 minutes (min) by the addition of 50 μl per well of Formaldehyde (Sigma-Aldrich F8775). […] The images were acquired using CellInsight CX5 (Thermo Fisher) and analysed by measuring the total number of hoechst stained nuclei. The number of nuclei (% confluence) of the drug treated wells were normalised to the DMSO control and the growth inhibition was calculated using the combenefit software (Di Veroli et al., 2016).

[2] = test system: PARylation in U87 isogenic pair; assay: PARylation inhibition in U87 isogenic pair; assay type: cell-based; details: data not shown
[3] = test system: PARylation in BT245 H3K27M paediatric glioma model; assay: PARylation inhibition in paediatric glioma model; assay type: cell-based
U87 IDH1wt ATRXwt = assay: Monotherapy treatment, U87 IDH1wt ATRXwt; assay type: cell-based; details: read-out: Compound 20 IC50
Protocol: as §1, §2

U87 IDH1 wt = assay: Combination assay PARP inhibitor with TMZ, U87 IDH1 wt; assay type: cell-based
Protocol: as §1, §2

[4] = Determination of Kpuu in rat; assay type: in vivo, Han Wistar rats; details: Han Wistar, rat, brain and plasma (unbound brain-to-plasma ratio), 2 µmols/kg/h, intravenous infusion
Protocol: The fraction unbound was determined using the RED Device.
Compounds were prepared as 10 mM solutions in DMSO. […] If less than 9 test compounds were included then the addition volume of blank DMSO was added to make up volume to 40 uL.
Frozen plasma was thawed in a water bath at 37° C. Plasma was then centrifuged for 2 minutes at 4,000 rpm to remove clots and collect supernatant into a fresh tube. The pH of the plasma was checked and only used if within the range of pH 7 to pH 8. 3 μL of the working solution of each cassette was added to 597 μL of blank plasma and vortexed for 5 minutes at 1000 rpm. The final percent volume of organic solvent is 0.5% and the final concentration for test compound was 5 μM. Immediately transfer 50 μL of the spiked plasma suspension to a 96-well plate to act as T=0 control sample. The samples are treated the same as the samples after incubation. The remaining plasma is kept at 37° C. prior to starting the dialysis.
Place inserts open end up into the wells of the base plate. Add 300 μL of spiked plasma sample into the sample chamber, indicated by the red ring. Add 500 μL of phosphate buffer (pH 7.4) to the buffer chamber. Cover the unit with gas permeable lid and incubate for 18 hours at 37° C. at 300 rpm with 5% CO2 on an orbital shaker in the CO2 incubator. At the end of incubation, remove lid and pipette 50 μL of post-dialysis samples from both buffer and plasma chambers into separated 96-well plate for analysis, respectively.
Samples were matrix matched by adding 50 μL of blank rat plasma to the buffer samples and an equal volume of PBS to the collected plasma samples and vortexed to mix. 400 μL of acetonitrile containing an appropriate internal standard (IS) was added to precipitate protein and release compound and mixed by vortexing the plate for 10 minutes followed by centrifugation for 30 minutes at 4,000 rpm. 250 μL of the supernatant was transferred to new 96-well plates and centrifuged again (4,000 rpm, 30 minutes). 100 μL of the supernatant was then transferred to new 96-well plates and mixed with 100 μL of distilled water to each sample by vortex for 5 minutes at 1,000 rpm. Samples were analysed by LC-MS/MS and drug concentrations were determined vs a calibration curve produced from spiked blank plasma with a typical range of 1-7500 nM.
The % unbound was determined as % Unbound=(Conc. buffer chamber/Conc. plasma chamber)×100%. Fraction unbound=% unbound/100.
The principle for the method for the determination of volume unbound in brain slices has previously been published (Development of a High-Throughput Brain Slice Method for Studying Drug Distribution in the Central Nervous System; Fridén et al; Drug Metabolism and Disposition, 2009, 37 (6) 1226-1233). In brief:
Compound stock solutions were prepared in DMSO at the concentration of 10 mM. […] If less than 9 test compounds were included, then blank DMSO was added to make up volume to 40 uL. On the day of the experiment 4 ul was diluted in 40 mL ECF buffer to give a 100 nM solution of each test compounds which was then pre-warmed to 37° C. before the start of the incubation.
To prepare brain slices, rats weighing approximately 300 g were terminally anesthetised with isoflurane by inhalation, the brain carefully removed and immersed in ice-cold oxygenated ECF buffer. The rat brain was transferred to a dish containing ice-cold, 02 supplied ECF buffer and trimmed with razor before gluing to the tray of a microslicer with the brain placed with the back section surface down centrally on the tray. Ice cold ECF buffer was added to harden the glue and wet the brain. The tray was placed in the microslicer and using a suitable cutting speed, 100-400 μm were cut slices until the striatum area appeared. Four to six for each brain, 300 μm thick, coronal slices of striatum areas were cut and placed in ice cold 02 supplied buffer until incubation. Six slices were transferred to the incubation tray containing 40 mL pre warmed (37° C.) cassette mixture. […]

CNC(=O)c1ccc(N2CCN(Cc3ccc4nc(C)c(=O)[nH]c4c3F)CC2)c(F)n1 [Example 20, 6-fluoro-5-[4-[(5-fluoro-2-methyl-3-oxo-4H-quinoxalin-6-yl)methyl]piperazin-1-yl]-N-methyl-pyridine-2-carboxamide]
combination effect with VAL-083 [1]: synergises with VAL-083
IC95 for PARylation inhibition [2]: 8 nM
IC95 for PARylation inhibition [3]: 4 nM
IC50 (U87 IDH1wt ATRXwt): > 100000 nM
concentration at which Compound 20 synergises with TMZ (U87 IDH1 wt): 10 µM
Kp uu at 4 h [4]: 0.27

Source: patent US20250082630A1, “METHODS OF TREATING BRAIN TUMOURS AND NEUROBLASTOMAS” (AstraZeneca AB, priority 2021, published 2025)
